Test results reported in patent US4882349A, “Pyrrolacetic amides having antiinflammatory activity” (priority 1982, dated 1989).
Like-named read-outs stand apart in the source and are kept apart here.

How the values were obtained:
[1] = test system: phenyl-p-quinone-induced writhing (abdominal contractions); assay: phenylquinone-induced writhing test, oral administration 1-24 h before phenyl-quinone (duration of analgesia); type: in vivo, male Wistar rats
Protocol: Male Wistar rats weighing 110±5 g were caged for 10 days at 22±1° C. and given a balanced diet with free access to water. Twenty-four hours before the experiment the animals were randomized into groups of 10 and fasted for 14 hours but with free access to water. Each dose was tested in 3 groups of rats. […] alone (0.5% carboxymethyl-cellulose in physiological saline) in the control animals, each rat was given 2 ml of a 5% absolute ethanol aqueous solution containing 0.36% of phenyl-p-quinone (Sigma Chemical Company) in order to provoke writhings. Fifteen minutes after administration of phenyl-p-quinone the number of contractions were counted for 20 minutes. The inhibiting effect of the compounds under examination on the abdominal contractions induced by phenyl-p-quinone was calculated by the following formula: % protection= [formula]

solubility = type: physicochemical
in vivo [2] = conditions: mouse
gastric lesions = type: in vivo, male Wistar rats; conditions: 4 consecutive days; for gastric damage index: I=mean no. of lesions+mean of severity+% incidence/10; for mean severity: scale 0 (no lesion) to 5 (perforations)
Protocol: Male Wistar rats weighing 180 g were randomized into groups of 10. Three doses of each compound were administered. One group received the vehicle alone (10 ml/kg b.w.). Each dose was given orally for four days consecutively and the rats were sacrificed on the fifth day for necropsy. The ulcerogenic effect was evaluated by the following scale:
(1) each haemorrhagic point at least 1 mm in diameter was scored as 1 lesion,
(2) haemorrhagic points less than 1 mm in diameter were scored in the following manner:
(c) 20 to 29=three lesions
By means of this scale it was possible to obtain the gastric damage index:
I=mean no. of lesions+mean of severity+% incidence/10

[3] = test system: brewers' yeast-induced hyperthermia; assay: antipyretic activity, brewers' yeast-induced hyperthermia; type: in vivo, albino male Wistar rats
Protocol: The animals were caged under the same conditions as those described in the preceding tests. Five hours following […], determined by a rectal probe connected to a YSI thermometer (73 ATP model, Yellow Springs Instrument Company) were selected for the experiment. The animals were then randomized into groups of 10 and the compounds under examination and the vehicle were administered via the oral and parenteral routes testing each dose in two groups. Body temperature was determined at one, two and three hours after administration of the substances. […]

in vivo [4] = conditions: rat

Q: With `COc1ccccc1OC(=O)CNC(=O)Cc1ccc(C(=O)c2ccc(C)cc2)n1C` [Compound 1-d, 1-methyl-5-p-toluoylpyrrole-2-acetamidoacetic acid guaiacyl ester] as the molecule, how does the “% Protection” value ([1]; 10 mg/Kg oral, 1 h before phenyl-quinone) read?
A: 55.7%

Q: What about the “% Protection” value ([1]; 10 mg/Kg oral, 2 h before phenyl-quinone) of the same molecule?
A: 43.3%

Q: And the “% Protection” value ([1]; 10 mg/Kg oral, 4 h before phenyl-quinone)?
A: 40.1%

Q: What about the “% Protection” value ([1]; 10 mg/Kg oral, 6 h before phenyl-quinone) of the same molecule?
A: 44.0%

Q: What about the “% Protection” value ([1]; 10 mg/Kg oral, 8 h before phenyl-quinone) of the same molecule?
A: 32.0%

Q: What about the “% Protection” value ([1]; 10 mg/Kg oral, 16 h before phenyl-quinone) of the same molecule?
A: 12.1%

Q: And the “% Protection” value ([1]; 10 mg/Kg oral, 24 h before phenyl-quinone)?
A: 10.0%

Q: What about the “% Protection” value ([1]; 20 mg/Kg oral, 1 h before phenyl-quinone) of the same molecule?
A: 78.1%

Q: And the “% Protection” value ([1]; 20 mg/Kg oral, 2 h before phenyl-quinone)?
A: 80.6%

Q: What about the “% Protection” value ([1]; 20 mg/Kg oral, 4 h before phenyl-quinone) of the same molecule?
A: 70.5%

Q: And the “% Protection” value ([1]; 20 mg/Kg oral, 6 h before phenyl-quinone)?
A: 66.3%

Q: What about the “% Protection” value ([1]; 20 mg/Kg oral, 8 h before phenyl-quinone) of the same molecule?
A: 71.0%

Q: What about the “% Protection” value ([1]; 20 mg/Kg oral, 16 h before phenyl-quinone) of the same molecule?
A: 23.6%

Q: What about the “% Protection” value ([1]; 20 mg/Kg oral, 24 h before phenyl-quinone) of the same molecule?
A: 25.0%

Q: And the “% Protection” value ([1]; 50 mg/Kg oral, 1 h before phenyl-quinone)?
A: 86.4%

Q: And the “% Protection” value ([1]; 50 mg/Kg oral, 2 h before phenyl-quinone)?
A: 87.0%

Q: And the “% Protection” value ([1]; 50 mg/Kg oral, 4 h before phenyl-quinone)?
A: 81.5%

Q: And the “% Protection” value ([1]; 50 mg/Kg oral, 6 h before phenyl-quinone)?
A: 76.8%

Q: What about the “% Protection” value ([1]; 50 mg/Kg oral, 8 h before phenyl-quinone) of the same molecule?
A: 75.0%

Q: What about the “% Protection” value ([1]; 50 mg/Kg oral, 16 h before phenyl-quinone) of the same molecule?
A: 60.7%

Q: What about the “% Protection” value ([1]; 50 mg/Kg oral, 24 h before phenyl-quinone) of the same molecule?
A: 64.0%

Q: What about the Solubility (solubility) of the same molecule?
A: soluble in the common organic solvents

Q: And the LD50 (in vivo [2]; ip)?
A: 1370 mg/kg

Q: And the LD50 (in vivo [2]; po)?
A: > 1500 mg/kg

Q: What about the “% incidence/10 (head is drawing 38)” value (gastric lesions; 50 mg/Kg orally) of the same molecule?
A: 6

Q: And the “mean no. of lesions” value (gastric lesions; 50 mg/Kg orally)?
A: 1.5

Q: What about the gastric damage index (gastric lesions; 50 mg/Kg orally) of the same molecule?
A: 8.5

Q: And the mean severity (gastric lesions; 50 mg/Kg orally)?
A: 1

Q: What about the “% incidence/10 (head is drawing 38)” value (gastric lesions; 100 mg/Kg orally) of the same molecule?
A: 9

Q: And the “mean no. of lesions” value (gastric lesions; 100 mg/Kg orally)?
A: 2

Q: What about the gastric damage index (gastric lesions; 100 mg/Kg orally) of the same molecule?
A: 12.5

Q: And the mean severity (gastric lesions; 100 mg/Kg orally)?
A: 1.5

Q: And the “% incidence/10 (head is drawing 38)” value (gastric lesions; 200 mg/Kg orally)?
A: 9

Q: And the “mean no. of lesions” value (gastric lesions; 200 mg/Kg orally)?
A: 2

Q: What about the gastric damage index (gastric lesions; 200 mg/Kg orally) of the same molecule?
A: 13

Q: What about the mean severity (gastric lesions; 200 mg/Kg orally) of the same molecule?
A: 2

Q: And the “% Temperature decrease” value ([3]; 50 mg/Kg i.p., 1 h)?
A: 16.0%

Q: And the “% Temperature decrease” value ([3]; 50 mg/Kg i.p., 2 h)?
A: 23.0%

Q: What about the “% Temperature decrease” value ([3]; 50 mg/Kg i.p., 3 h) of the same molecule?
A: 37.5%

Q: What about the “% Temperature decrease” value ([3]; 50 mg/Kg per os, 1 h) of the same molecule?
A: 14.0%

Q: And the “% Temperature decrease” value ([3]; 50 mg/Kg per os, 2 h)?
A: 22.0%

Q: And the “% Temperature decrease” value ([3]; 50 mg/Kg per os, 3 h)?
A: 31.6%

Q: What about the “% Temperature decrease” value ([3]; 75 mg/Kg i.p., 1 h) of the same molecule?
A: 22.1%

Q: And the “% Temperature decrease” value ([3]; 75 mg/Kg i.p., 2 h)?
A: 33.4%

Q: And the “% Temperature decrease” value ([3]; 75 mg/Kg i.p., 3 h)?
A: 39.8%

Q: And the “% Temperature decrease” value ([3]; 75 mg/Kg per os, 1 h)?
A: 18.5%

Q: What about the “% Temperature decrease” value ([3]; 75 mg/Kg per os, 2 h) of the same molecule?
A: 23.4%

Q: And the “% Temperature decrease” value ([3]; 75 mg/Kg per os, 3 h)?
A: 29.1%

Q: What about the “% Temperature decrease” value ([3]; 100 mg/Kg i.p., 1 h) of the same molecule?
A: 28.1%

Q: And the “% Temperature decrease” value ([3]; 100 mg/Kg i.p., 2 h)?
A: 37.2%

Q: And the “% Temperature decrease” value ([3]; 100 mg/Kg i.p., 3 h)?
A: 60.4%

Q: What about the “% Temperature decrease” value ([3]; 100 mg/Kg per os, 1 h) of the same molecule?
A: 22.0%

Q: What about the “% Temperature decrease” value ([3]; 100 mg/Kg per os, 2 h) of the same molecule?
A: 42.5%

Q: What about the “% Temperature decrease” value ([3]; 100 mg/Kg per os, 3 h) of the same molecule?
A: 59.0%

Q: What about the LD50 (in vivo [4]; ip) of the same molecule?
A: 1100 mg/kg

Q: And the LD50 (in vivo [4]; po)?
A: 1450 mg/kg
